In the SangsterLogP compilation:

assay: method code SF, from Hansch, C. & Leo, A. (1987). Log P database [Dataset]. Pomona College Medicinal Chemistry Project.; conditions: not given

logP	Structure (SMILES)
3.12	O=C1OC(Cc2ccccc2)c2ccccc21 (stereo unspecified)
2.23	CC(=O)Sc1ccccc1
2.87	Nc1cccc2c1C(=O)c1ccccc1C2=O
1.11	Cc1ccccn1
-0.68	CN(C(=O)CCOS(C)(=O)=O)c1ccc(S(=O)(=O)N(C)C)cc1
-0.52	CS(=O)(=O)OCCCCOS(C)(=O)=O
2.66	COc1cccc(C)c1
1.69	O=[N+]([O-])c1ccc(OCCn2ccnc2)cc1
1.51	CN(C)C(=O)Nc1ccc([N+](=O)[O-])cc1
2.08	CN(C)CCCc1ccco1
4.73	C[C@@H]1C[C@H]2[C@@H]3C[C@H](F)C4=CC(=O)C(Cl)=C[C@]4(C)[C@@]3(Cl)[C@@H](O)C[C@]2(C)[C@@]1(O)C(=O)COC(=O)C(C)(C)C
0.61	Cn1ncc2ccccc2c1=O
0.87	OCc1cccs1
1.01	CC(C)(C)[N+](=O)[O-]
2.05	Oc1ccnc2cc(C(F)(F)F)ccc12
1.04	CC(C)(O)C(F)(F)F
-0.96	CNC(=O)NC
0.84	CN(C)c1cnnc(N(C)C)c1
2.3	O=C(O)CCCc1c[nH]c2ccccc12
1.2	O=CNc1ccccc1

logP	Structure (SMILES)
1.93	CC(=O)OC1CCCCC1NC(=O)N(CCCl)N=O (stereo unspecified)
1.33	CON(C)C(=O)Nc1cccc(C#N)c1
0.75	CC(=O)Nc1cc(OCC(=O)O)ccc1Cl
0.75	O=c1[nH]ncc2ccccc12
1.73	O=C(Nc1ccccc1)c1cccnc1
4.37	CC(C)CN(CC(C)C)C(=O)C=Cc1ccc2c(c1)OCO2
1.05	COc1ccc2[nH]c(C(O)C(O)c3nc4cc(OC)ccc4[nH]3)nc2c1 (stereo unspecified)
2.6	Cc1cccc2cccnc12
2.4	CCc1ccco1
2.21	CCOC(=O)C(=Cc1ccccc1)C(C)=O
2.2	c1ccc(-n2cccn2)cc1
2.53	Cc1ccccc1/C=N/O
1.65	O=S1(=O)NC(C(F)(F)F)=Nc2cc(Cl)ccc21
1.87	CC1(C)Oc2c(O)cccc2C1=O
1.1	COc1ccc(NC(C)=O)cc1
3.23	CCCCC
3.04	CCOC(=O)C(=Cc1ccc(Cl)cc1)C(C)=O
1.12	CO[C@H]1C=CO[C@@]2(C)Oc3c(C)c(O)c4c(O)c(c(C=NN5CCNCC5)c(O)c4c3C2=O)NC(=O)C(C)=CC=C[C@H](C)[C@H](O)[C@@H](C)[C@@H](O)[C@@H](C)[C@H](OC(C)=O)[C@@H]1C
0.61	O=C1CC(=O)c2ccccc21
0.09	NC(=O)c1ccoc1

Structure (SMILES)	logP
COP(=S)(NC(C)C)Oc1ccc(Cl)cc1Cl (stereo unspecified)	4.3
COC(=O)C(C)Oc1ccc(Oc2ccc(Cl)cc2Cl)cc1 (stereo unspecified)	4.8
CCOP(=O)(OCC)SCn1nnc2ccccc2c1=O	1.63
COc1ccccc1OC	1.79
CC(C)CC(CC(C)C)OC(=O)c1ccc(NC(=O)N(C)C)cc1Cl	5.15
Cc1cccc(Cl)c1	3.28
CCOC(=O)CC(=O)C=Cc1ccccc1C	2.66
CC(=O)c1ccccc1OC(=O)N(C)C	0.93
O=C1C(NCCO)=C(N2CC2)C(=O)C(NCCO)=C1N1CC1	-1.48
C1COCCO1	-0.27
CC(=O)Nc1ccc2oc(C)c(C)c(=O)c2c1	1.79

same assay, conditions: pH 1.0

logD	Structure (SMILES)
2.58	CC(=O)c1c(O)oc(=O)c(/C(C)=N/c2ccccc2)c1O

same assay, conditions: pH 7.0

Structure (SMILES)	logD
CNc1ncnc2ccsc12	1.43
CC(=O)c1cccc(F)c1	1.77

same assay, conditions: pH 7.2

logD	Structure (SMILES)
0.89	CO/N=C(/C(=O)N[C@@H]1C(=O)N2C(C(=O)OC(C)OC(C)=O)=C(COC(N)=O)CS[C@@H]12)c1ccco1 (stereo partly specified)

same assay, conditions: pH 7.4

logD	Structure (SMILES)
2.59	C=CCN(CC=C)c1c(C)n(-c2ccccc2)c(=O)n(C)c1=O

same assay, conditions: pH 11.0

Structure (SMILES)	logD
N=c1ccn2c(n1)OC1C(O)C(CO)OC12 (stereo unspecified)	-2.37

same assay, conditions: pH 13.0

logD	Structure (SMILES)
4.22	CN(Cc1ccccc1)c1ccccc1
0.28	CC1(C)N=C(N)N=C(N)N1c1ccccc1
-0.24	CC1(C)N=C(N)N=C(N)N1c1cccc(C#N)c1
3.9	CN(c1ccccc1)c1ccccc1
